Assay results reported in patent US12558428B2, “Heterobifunctional compounds and their use in treating disease” (Halda Therapeutics OpCo, Inc., priority 2024, dated 2026).

Assays:
Assay type in all cases: cell-based
[1] = test system: T-Rex 293 cells having increased expression of estrogen receptor alpha protein; experiment: Cellular growth inhibition assay, T-Rex 293 cells, (+) doxycycline; details: T-REx-293, 72 h, Table 7-A; T-Rex 293 cells with doxycycline (increased ERα expression); 72 hours; CellTiter-Glo; read-out: (+) Dox GI50
Outline: (§1)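 Cells of an inducible ERα-expressing T-Rex 293 clone are seeded in charcoal-dextran FBS medium with or without 3 ng/mL doxycycline, then treated after 24 h with compound dilutions (0.5% DMSO) for 72 h. Growth inhibition is measured by CellTiter-Glo luminescence and expressed as GI50.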

[2] = test system: T-Rex 293 cells lacking increased expression of estrogen receptor alpha protein; experiment: Cellular growth inhibition assay, T-Rex 293 cells, (−) doxycycline; details: T-REx-293, 72 h, Table 7-A; T-Rex 293 cells without doxycycline (lacking increased ERα expression); 72 hours; CellTiter-Glo; read-out: (−) Dox GI50
Outline: as §1

[3] = test system: MCF7 cells (ATCC #HTB-22); experiment: Cellular growth inhibition assay, MCF7 cells purchased from ATCC; details: Homo sapiens, MCF7, 144 h, Table 8-A; MCF7 cells purchased from ATCC; six days; CellTiter-Glo; read-out: GI50
Outline: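 GI50 values come from a four-parameter fit of CellTiter-Glo 2.0 luminescence after six days of compound exposure at 37° C. Seeding density depended on the source: 225 cells/well for ECACC MCF7, 1,500 for ATCC. Medium was RPMI 1640 with 10% FBS and 0.2 U/ml insulin.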

Row | SMILES | GI50 [1] [nM] | GI50 [2] [nM] | GI50 [3] [nM]
1 | Cc1sc2c(c1C)C(c1ccc(N3CC(N4CCN(CCOc5ccc([C@@H]6c7ccc(O)cc7CC[C@@H]6c6ccccc6)cc5)CC4)C3)cc1)=N[C@@H](Cc1ncco1)c1nnc(C)n1-2 [III-113] | < 50 | 50 to 500 | < 50
2 | Cc1sc2c(c1C)C(c1ccc(N3CC(N4CCN(CCOc5ccc([C@H]6c7ccc(O)cc7CC[C@H]6c6ccccc6)cc5)CC4)C3)cc1)=N[C@@H](Cc1ncco1)c1nnc(C)n1-2 [III-114] | < 50 | 50 to 500 | 50 to 500
3 | Cc1sc2c(c1C)C(c1ccc(CN3CCC4(CC3)CCN(c3ccc([C@@H]5c6ccc(O)cc6CC[C@@H]5c5ccccc5)cc3)CC4)cc1)=N[C@@H](C)c1nnc(C)n1-2 [III-115] | 50 to 500 | 500 to 2500 | 50 to 500
4 | Cc1sc2c(c1C)C(c1ccc(N3CCC4(CC3)CCN(c3ccc([C@@H]5c6ccc(O)cc6CC[C@@H]5c5ccccc5)cc3)CC4)cc1)=N[C@@H](C)c1nnc(C)n1-2 [III-116] | > 2500 | > 2500 | 500 to 2500
5 | Cc1sc2c(c1C)C(c1ccc(N3CCC4(CC3)CCN(c3ccc([C@@H]5c6ccc(O)cc6CC[C@@H]5c5ccccc5)cc3)C4)cc1)=N[C@@H](C)c1nnc(C)n1-2 [III-117] | 500 to 2500 | 500 to 2500 | 50 to 500
6 | Cc1sc2c(c1C)C(c1ccc(N3CCC(O)(CN4CCN(c5ccc([C@@H]6c7ccc(O)cc7CC[C@@H]6c6ccccc6)cc5)CC4)CC3)cc1)=N[C@@H](C)c1nnc(C)n1-2 [III-118] | < 50 | 500 to 2500 | 50 to 500
7 | Cc1sc2c(c1C)C(c1ccc(N3CCC(C(=O)N4CCN(c5ccc([C@@H]6c7ccc(O)cc7CC[C@@H]6c6ccccc6)cc5)CC4)CC3)cc1)=N[C@@H](C)c1nnc(C)n1-2 [III-119] | 50 to 500 | 500 to 2500 | 50 to 500
8 | Cc1sc2c(c1C)C(c1ccc(N3CCC4(CCN(c5ccc([C@@H]6c7ccc(O)cc7CC[C@@H]6c6ccccc6)cc5)CC4)C3)cc1)=N[C@@H](C)c1nnc(C)n1-2 [III-120] | > 2500 | 500 to 2500 | 50 to 500
9 | COC1(CN2CCN(c3ccc([C@@H]4c5ccc(O)cc5CC[C@@H]4c4ccccc4)cc3)CC2)CCN(c2ccc(C3=N[C@@H](C)c4nnc(C)n4-c4sc(C)c(C)c43)cc2)CC1 [III-121] | 500 to 2500 | > 2500 | 500 to 2500
10 | Cc1sc2c(c1C)C(c1ccc(N3CCN(CC4CCN(c5ncc([C@H]6c7ccc(O)cc7CC[C@H]6c6ccccc6)cn5)CC4)CC3)cc1)=N[C@@H](C)c1nnc(C)n1-2 [III-122] | 500 to 2500 | > 2500 | 500 to 2500
11 | Cc1sc2c(c1C)C(c1ccc(N3CCN(CC4CCN(c5ncc([C@@H]6c7ccc(O)cc7CC[C@@H]6c6ccccc6)cn5)CC4)CC3)cc1)=N[C@@H](C)c1nnc(C)n1-2 [III-123] | < 50 | 500 to 2500 | 50 to 500
12 | Cc1sc2c(c1C)C(c1ccc(N3CC(N4CCN(Cc5ccc([C@@H]6c7ccc(O)cc7CC[C@@H]6c6ccccc6)cc5)CC4)C3)cc1)=N[C@@H](Cc1ncco1)c1nnc(C)n1-2 [III-124] | 50 to 500 | 500 to 2500 | 50 to 500
13 | Cc1sc2c(c1C)C(c1ccc(N3CCC(CN4CCN(c5ccc([C@H]6c7ccc(O)cc7CC[C@H]6c6ccccc6)cn5)CC4)CC3)cc1)=N[C@@H](Cc1ncco1)c1nnc(C)n1-2 [III-125] | < 50 | 50 to 500 | 50 to 500
14 | Cc1sc2c(c1C)C(c1ccc(N3CCC(CN4CCN(c5ccc([C@@H]6c7ccc(O)cc7CC[C@@H]6c6ccccc6)cn5)CC4)CC3)cc1)=N[C@@H](Cc1ncco1)c1nnc(C)n1-2 [III-126] | < 50 | 50 to 500 | 50 to 500
15 | Cc1sc2c(c1C)C(c1ccc(N3CCN(CC4CCN(c5ncc([C@H]6c7ccc(O)cc7CC[C@H]6c6ccccc6)cn5)CC4)CC3)cc1)=N[C@@H](Cc1ncco1)c1nnc(C)n1-2 [III-127] | 50 to 500 | 500 to 2500 | 50 to 500
16 | Cc1sc2c(c1C)C(c1ccc(N3CCN(CC4CCN(c5ncc([C@@H]6c7ccc(O)cc7CC[C@@H]6c6ccccc6)cn5)CC4)CC3)cc1)=N[C@@H](Cc1ncco1)c1nnc(C)n1-2 [III-128] | < 50 | 50 to 500 | 50 to 500
17 | Cc1sc2c(c1C)C(c1ccc(N3CCC4(CCN(Cc5ccc([C@@H]6c7ccc(O)cc7CC[C@@H]6c6ccccc6)cc5)CC4)CC3)cc1)=N[C@@H](C)c1nnc(C)n1-2 [III-129] | 50 to 500 | 500 to 2500 | 50 to 500
18 | COC1(CN2CCC(c3ccc([C@@H]4c5ccc(O)cc5CC[C@@H]4c4ccccc4)cc3)CC2)CCN(c2ccc(C3=N[C@@H](C)c4nnc(C)n4-c4sc(C)c(C)c43)cc2)CC1 [III-130] | 50 to 500 | 500 to 2500 | 50 to 500

Row | SMILES | GI50 [1] [nM] | GI50 [2] [nM] | GI50 [3] [nM]
19 | Cc1sc2c(c1C)C(c1ccc(N3CC(CC4CCN(CC5CN(c6ccc([C@@H]7c8ccc(O)cc8CC[C@@H]7c7ccccc7)cc6)C5)CC4)C3)cc1)=N[C@@H](C)c1nnc(C)n1-2 [III-131] | < 50 | 500 to 2500 | 50 to 500
20 | Cc1sc2c(c1C)C(c1ccc(N3CCC(CN4CCC(c5ccc([C@@H]6c7ccc(O)cc7CC[C@@H]6c6ccccc6)cc5)CC4)CC3)cc1)=N[C@@H](C)c1nnc(C)n1-2 [III-132] | 50 to 500 | 500 to 2500 | 50 to 500
21 | Cc1sc2c(c1C)C(c1ccc(N3CC(CN4CCC(CC5CN(c6ccc([C@@H]7c8ccc(O)cc8CC[C@@H]7c7ccccc7)cc6)C5)CC4)C3)cc1)=N[C@@H](C)c1nnc(C)n1-2 [III-133] | < 50 | 50 to 500 | 50 to 500
22 | Cc1sc2c(c1C)C(c1ccc(N3CC(C(=O)N4CCC(CC5CN(c6ccc([C@@H]7c8ccc(O)cc8CC[C@@H]7c7ccccc7)cc6)C5)CC4)C3)cc1)=N[C@@H](C)c1nnc(C)n1-2 [III-134] | < 50 | 50 to 500 | < 50
23 | Cc1sc2c(c1C)C(c1ccc(N3CC(CC4CCN(C(=O)C5CN(c6ccc([C@@H]7c8ccc(O)cc8CC[C@@H]7c7ccccc7)cc6)C5)CC4)C3)cc1)=N[C@@H](C)c1nnc(C)n1-2 [III-135] | < 50 | 500 to 2500 | < 50
24 | Cc1sc2c(c1C)C(c1ccc(N3CC(CN4CCN(CC5CN(c6ccc([C@H]7c8ccc(O)cc8CC[C@H]7c7ccccc7)cc6)C5)CC4)C3)cc1)=N[C@H](C)c1nnc(C)n1-2 [III-136] | > 2500 | > 2500 | > 2500
25 | Cc1sc2c(c1C)C(c1ccc(CC(=O)N3CCC4(CCN(c5ccc([C@@H]6c7ccc(O)cc7CC[C@@H]6c6ccccc6)cc5)CC4)C3)cc1)=N[C@@H](C)c1nnc(C)n1-2 [III-137] | 500 to 2500 | 500 to 2500 | 50 to 500
26 | Cc1sc2c(c1C)C(c1ccc(N3CC(CC4CCN(c5ccc([C@@H]6c7ccc(O)cc7CC[C@@H]6c6ccccc6)cc5)CC4)C3)cc1)=N[C@@H](C)c1nnc(C)n1-2 [III-138] | 500 to 2500 | > 2500 | 500 to 2500
27 | Cc1sc2c(c1C)C(c1ccc(N3CC(C(=O)N4CCC(c5ccc([C@@H]6c7ccc(O)cc7CC[C@@H]6c6ccccc6)cc5)CC4)C3)cc1)=N[C@@H](C)c1nnc(C)n1-2 [III-139] | 500 to 2500 | 500 to 2500 | 50 to 500
28 | Cc1sc2c(c1C)C(c1ccc(N3CCC(O)(CN4CCC(c5ccc([C@@H]6c7ccc(O)cc7CC[C@@H]6c6ccccc6)cc5)CC4)CC3)cc1)=N[C@@H](Cc1ncco1)c1nnc(C)n1-2 [III-140] | 50 to 500 | 500 to 2500 | < 50
29 | Cc1sc2c(c1C)C(c1ccc(C3CN(CC4CCN(c5ccc([C@@H]6c7ccc(O)cc7CC[C@@H]6c6ccccc6)cc5)CC4)C3)cc1)=N[C@@H](C)c1nnc(C)n1-2 [III-141] | 50 to 500 | 500 to 2500 | 50 to 500
30 | Cc1sc2c(c1C)C(c1ccc(C3CN(C(=O)C4CCN(c5ccc([C@@H]6c7ccc(O)cc7CC[C@@H]6c6ccccc6)cc5)CC4)C3)cc1)=N[C@@H](C)c1nnc(C)n1-2 [III-142] | 50 to 500 | 50 to 500 | 50 to 500
31 | Cc1sc2c(c1C)C(c1ccc(N3CCC(O)(CN4CCN(c5ccc([C@@H]6c7ccc(O)cc7CC[C@@H]6c6ccccc6)cc5)CC4)CC3)cc1)=N[C@@H](Cc1ncco1)c1nnc(C)n1-2 [III-143] | > 2500 | > 2500 | > 2500
32 | Cc1sc2c(c1C)C(c1ccc(N3CCC(F)(CN4CCC(c5ccc([C@@H]6c7ccc(O)cc7CC[C@@H]6c6ccccc6)cc5)CC4)CC3)cc1)=N[C@@H](C)c1nnc(C)n1-2 [III-144] | 50 to 500 | > 2500 | 500 to 2500
33 | Cc1sc2c(c1C)C(c1ccc(N3CCC(C)(CN4CCC(c5ccc([C@@H]6c7ccc(O)cc7CC[C@@H]6c6ccccc6)cc5)CC4)CC3)cc1)=N[C@@H](C)c1nnc(C)n1-2 [III-145] | 500 to 2500 | 500 to 2500 | 50 to 500
34 | Cc1sc2c(c1C)C(c1ccc(N3CC(CN4CCN(CC5CN(c6ccc([C@@H]7c8ccc(O)cc8CC[C@@H]7c7ccccc7)cc6)C5)CC4)C3)cc1)=N[C@H](C)c1nnc(C)n1-2 [III-146] | 500 to 2500 | 500 to 2500 | < 50
35 | Cc1sc2c(c1C)C(c1ccc(N3CC(CN4CCN(CC5CN(c6ccc([C@H]7c8ccc(O)cc8CC[C@H]7c7ccccc7)cc6)C5)CC4)C3)cc1)=N[C@@H](C)c1nnc(C)n1-2 [III-147] | 50 to 500 | 50 to 500 | 50 to 500
